The text below walks through data of patent publication US5279543A, “Device for iontophoretic non-invasive sampling or delivery of substances” (priority 1992, dated 1994).

“And” between values parts separate entries of the source, which are not always exact repeats. Identical values can stand only once. “Also recorded” adds a separate entry of the source. Counter-ions that a name gives are not always drawn.

A short description of data set [1]: In vitro iontophoretic sampling of glucose through skin into gel electrodes. The format is in vitro ADME, hairless mouse (Skh: hr-1). Conditions: for Amount Glucose Measured In Gel Electrode per Sample: four time periods; for Iontophoretic Flux sample (amount of glucose sampled in 2 hours): 0.5 mA, (+) electrode; for Sample-glucose: four cells. How it is done:
In order to show the ability of the method to sample glucose through the skin, in vitro studies are conducted using hairless mouse skin as the skin model and the iontophoretic diffusion cells in FIGS. 1-13. The results here are applicable to in-vivo sampling from a mammal, particularly a human being. Two self-adhesive gel electrodes (Kenzgelelc, by Nitto Electric Industry Co., Limited, Osaka, Japan) are placed on the same side of a singe continuous piece of hairless mouse skin (full thickness-about 0.5 mm) (Skh: hr-1, 8-13 weeks old). Under the skin, radiolabelled (^14 C-U)-glucose having known concentration in solution in phosphate-buffered saline (0.9% sodium chloride) is perfused, pH of phosphate is about 7.4. Temperature is ambient.
In the first set of experiments, following the assembly of the cell and initiation of the glucose solution perfusion, current is applied (0.5 milliampere) for 2 hours. The voltage may vary from about 1 to 10 volts. Usually, it is about 5 volts. The important parameter to keep constant is the applied current. The voltage may vary based upon the electrical resistance of the sampling site. Then the gel electrodes are disconnected and tested for radioactivity content by conventional liquid scintillation counting. […]. […] (Electrical conditions in the experiments--same constant direct current (dc) but as iontophoretic delivery may also operate in pulsed current, etc., (the pulsed approach should also perform in a predictable way for sampling).
the second set of experiments, using similar experimental set-up as before, a (^14 C-U)-glucose solution of 0.34 mg/ml glucose is phosphate buffered saline is perfused, and the gel electrodes are replaced every 30 minutes.
Since the skin for each single experiment comes from a different mouse, evaluation of each single diffusion cell (means--samples collected through the same piece of skin), eliminating the first sample (the first 0.5 hr. is slightly higher than the others due to the experimental conditions) was done. […]

The conditions of data set [2]: charged and uncharged TRH; excised nude mouse skin; cited from earlier work.
Data set [3] in a line: In vivo sampling with iontophoresis cell on human forearm. Conditions: forearm of person; versus in vitro case. An excerpt:
The procedure and description above for in vitro sampling is used except that the membrane is replaced by the top of the forearm of a human being. The sampling cell used is the one in FIGS. 7, 8, 9A and 9B.

Data set [4] is described as follows: Iontophoretic sampling in vitro (Example 2). The format is in vitro ADME, hairless mouse. Particulars: 0.5 mA, about 2 hr, about 0.63 mA/cm^2; various concentrations; mean of at least two experiments. The protocol:
Iontophoretic sampling consists of pulling out chemical substances from the body through the skin by means of electricity. In order to test this method, an iontophoretic in-vitro cell is used (FIGS. 1, 2, 3 or 4). Full-thickness hairless mouse skin 13 (8-13 weeks old) is placed between the two parts of the cell. Solutions of radiolabelled drugs of known concentration in phosphate-buffered saline are circulated 10 ml/hr. beneath the skin. On top of the skin there are two self-adhesive gel electrodes, connected to a power supply which is set up in constant current mode (0.5 mA). Current is applied for measured length of time (about 2 hr.) corresponding to about 0.63 mA/cm^2. After the experiment the gel electrodes are taken for scintillation counting, which reflects the amount of drug absorbed by the gel electrodes. Using different drug concentrations with the same electrical current for the same period of time, a linear correlation between the amount is collected by the electrode and drug concentration is expected.

How the values of data set [5] were obtained:
(1) Leakage tests (without current) using dye and silicone rubber than skin; (2) leakage tests using dye and skin (without current); and (3) iontophoretic tests using the drug solutions and skin (with and without current). Procedures (1) and (2) were evaluated by visually inspecting the cell. […] The activity of the skin 13 and of the samples taken from the receptor chamber was determined post-experimentally. Each experiment lasts approximately 24 hours, ±2 hours, with samples collected hourly. Receptor fluid 17 was magnetically stirred (27), and the collection flow rate was 10 ml/hr.

A short description of data set [6]: In vivo iontophoretic sampling (biosensing) in dog. An excerpt: The sampling of the radioactive clonidine in vitro is described above. […] The operator is alerted when to administer an injection clondine to maintain the desired level of clonidine in the test dog.
A short description of data set [7]: In vitro iontophoretic delivery of P.S.O.S. from chamber 16A. The format is in vitro ADME. How it is done:
(b) P.S.O.S. (Potassium Sucrose Octa Sulfate) P.S.O.S., 0.6 ml of 1.5 mg/ml solution in a boric buffer is placed in chamber 16A and boric acid buffer alone is placed in chamber 16C of FIG. 1, 2 or 3. Using a direct current of 0.5 mA (0.65 mA/cm^2) transport of P.S.O.S. is observed up to 5 μg/hr.

With `O=C[C@H](O)[C@@H](O)[C@H](O)[C@H](O)CO` [glucose], the “S.D. for individual diffusion cells (individual mouse)” value in data set [1] (0.34 mg/ml glucose, except cell #3) lay within 4 to 9%. In data set [1] (0.34 mg/ml glucose, first 0.5 hr sample eliminated), the “Amount of glucose sampled, average of four separate cells” value was 0.79 to 0.74 μg. For the same molecule, in data set [1] (0.153 vs 1.07 mg/ml (concentration ratio 0.143)), the “Ratio A/B of glucose sampled” value is reported as 0.144. Besides, the “Sample-glucose, Average” value in data set [1] (average of samples 1-5 (0 - 2 1/2 hr), 0.34 mg/ml glucose, 15 ml/hr) was determined as 0.80 ± 0.19 µg. Further, the “Amount Glucose Measured In Gel Electrode per Sample” value in data set [1] (cell 1, 0.34 mg/ml glucose, 15 ml/hr) came out at 0.825 ± 0.041 µg; in data set [1] (cell 2, 0.34 mg/ml glucose, 15 ml/hr), 0.963 ± 0.090 µg; in data set [1] (cell 3, 0.34 mg/ml glucose, 15 ml/hr), 0.530 ± 0.115 µg; in data set [1] (cell 5, 0.34 mg/ml glucose, 15 ml/hr) it was 0.727 ± 0.033 µg. Besides, in data set [1] (fixed sampling time, same electrical conditions), the “Correlation between glucose concentration under/in the skin and amount of glucose sampled” value is recorded as “near-perfect linear correlation; also recorded: clear correlation”. Besides, the “Iontophoretic Flux sample (amount of glucose sampled in 2 hours)” value in data set [1] (glucose concentration 0.153 mg/ml) is 0.705 μg/2 hr and 0.705 +/- 0.095 μg/2 hr; in data set [1] (glucose concentration 1.07 mg/ml), 4.9 μg/2 hr and 4.9 +/- 0.7 μg/2 hr. In addition, the Sample-glucose in data set [1] (sample 1, 0 - 1/2 hr, 0.34 mg/ml glucose, 15 ml/hr) turned out to be 0.97 ± 0.12 µg; in data set [1] (sample 2, 1/2 - 1 hr, 0.34 mg/ml glucose, 15 ml/hr) it was 0.79 ± 0.09 µg; in data set [1] (sample 3, 1 - 1 1/2 hr, 0.34 mg/ml glucose, 15 ml/hr) it was 0.76 ± 0.10 µg; in data set [1] (sample 4, 1 1/2 - 2 hr, 0.34 mg/ml glucose, 15 ml/hr), 0.75 ± 0.21 µg; in data set [1] (sample 5, 2 - 2 1/2 hr, 0.34 mg/ml glucose, 15 ml/hr), 0.74 ± 0.24 µg.

On to `NC(=O)[C@@H]1CCCN1C(=O)[C@H](Cc1cnc[nH]1)NC(=O)[C@@H]1CCC(=O)N1` [TRH, thyrotropin releasing hormone], for which, in data set [2], the “Iontophoretic flux across excised tissue compared with passive diffusion” value is on record as “greater than those obtained by passive diffusion alone”.

Consider `Clc1cccc(Cl)c1N=C1NCCN1` [clonidine-HCl, Clonidine HCl], for which the “Amount of clonidine sampled in vivo” value in data set [3] was “comparable to that observed in the in vitro case”. Besides, the “Linearity of amount sampled versus drug concentration (FIG. 11 and 12)” value in data set [4] is reported as “linearity of the results”. Besides, the “Rate of penetration through the skin with current” value in data set [5] (0.63 mA/cm^2) came out at 15.0 μg/cm^2 /hr. Besides, the “Mean rate of diffusion into the receptor phase (passive transport rate)” value in data set [5] (no current) is listed as 0.05 μg/cm^2 /hr. In addition, the “Drug found in the buffered saline of chamber 16C” value in data set [5] (no current, after 20 hours) was “no drug was found”. Further, the “Amount of labelled drug in the buffered saline of chamber 16C” value in data set [5] (with current 0.63 mA/cm^2, approximately 20 hours) came out at 5 µg. Also, the “Level of radioactive clonidine measured iontophoretically” value in data set [6] was “quickly and accurately”.

Turning to `O=S(=O)(O)OC[C@H]1O[C@@](COS(=O)(=O)O)(O[C@H]2O[C@H](COS(=O)(=O)O)[C@@H](OS(=O)(=O)O)[C@H](OS(=O)(=O)O)[C@H]2OS(=O)(=O)O)[C@@H](OS(=O)(=O)O)[C@@H]1OS(=O)(=O)O` [P.S.O.S., Potassium Sucrose Octa Sulfate], in data set [7] (direct current 0.5 mA (0.65 mA/cm^2), 0.6 ml of 1.5 mg/ml solution), the “Transport of P.S.O.S.” value is recorded as “up to 5 μg/hr”. Further, in data set [7] (printed 'with a current' (comparison, same configuration)), the “Amount of P.S.O.S. transferred” value was “only a few nanograms”.
